Measurements: US20260130395A1, “Water Dispersible Botanical Compositions” (Aquila Black Limited, priority 2021, published 2026)

Experiment: Stability of cannabinoid entourage and Vitamin E components of the powder concentrate by LCMSMS
Assay type: physicochemical
Settings: powder stored at 21-25° C.
Procedure: At each time period, 0.05 g of powder was dissolved in 10 ml-15 of ethanol, diluted to fall within the analytical range, and injected into the LCMSMS for analysis.

## CC(=O)Oc1c(C)c(C)c2c(c1C)CCC(C)(CCC[C@H](C)CCC[C@H](C)CCCC(C)C)O2 (stereo partly drawn) [α-Tocopheryl acetate]
0 days
  Stability of Vitamin Es in Powder Concentrate: 2.15 mg/g powder
1 days
  Stability of Vitamin Es in Powder Concentrate: 2.19 mg/g powder
2 days
  Stability of Vitamin Es in Powder Concentrate: 2.11 mg/g powder
3 days
  Stability of Vitamin Es in Powder Concentrate: 2.18 mg/g powder
5 days
  Stability of Vitamin Es in Powder Concentrate: 2.24 mg/g powder
8 days
  Stability of Vitamin Es in Powder Concentrate: 2.23 mg/g powder
9 days
  Stability of Vitamin Es in Powder Concentrate: 2.09 mg/g powder
10 days
  Stability of Vitamin Es in Powder Concentrate: 2.09 mg/g powder
11 days
  Stability of Vitamin Es in Powder Concentrate: 2.20 mg/g powder
12 days
  Stability of Vitamin Es in Powder Concentrate: 2.17 mg/g powder
15 days
  Stability of Vitamin Es in Powder Concentrate: 2.24 mg/g powder
16 days
  Stability of Vitamin Es in Powder Concentrate: 2.15 mg/g powder
17 days
  Stability of Vitamin Es in Powder Concentrate: 2.13 mg/g powder
18 days
  Stability of Vitamin Es in Powder Concentrate: 2.10 mg/g powder
19 days
  Stability of Vitamin Es in Powder Concentrate: 2.21 mg/g powder
22 days
  Stability of Vitamin Es in Powder Concentrate: 2.11 mg/g powder
23 days
  Stability of Vitamin Es in Powder Concentrate: 2.16 mg/g powder
24 days
  Stability of Vitamin Es in Powder Concentrate: 2.09 mg/g powder
25 days
  Stability of Vitamin Es in Powder Concentrate: 2.24 mg/g powder
26 days
  Stability of Vitamin Es in Powder Concentrate: 2.10 mg/g powder
29 days
  Stability of Vitamin Es in Powder Concentrate: 2.21 mg/g powder
30 days
  Stability of Vitamin Es in Powder Concentrate: 2.08 mg/g powder
60 days
  Stability of Vitamin Es in Powder Concentrate: 2.15 mg/g powder
90 days
  Stability of Vitamin Es in Powder Concentrate: 2.24 mg/g powder
120 days
  Stability of Vitamin Es in Powder Concentrate: 2.17 mg/g powder
150 days
  Stability of Vitamin Es in Powder Concentrate: 2.18 mg/g powder
180 days
  Stability of Vitamin Es in Powder Concentrate: 2.20 mg/g powder
210 days
  Stability of Vitamin Es in Powder Concentrate: 2.15 mg/g powder
240 days
  Stability of Vitamin Es in Powder Concentrate: 2.23 mg/g powder
270 days
  Stability of Vitamin Es in Powder Concentrate: 2.13 mg/g powder
300 days
  Stability of Vitamin Es in Powder Concentrate: 2.09 mg/g powder
330 days
  Stability of Vitamin Es in Powder Concentrate: 2.15 mg/g powder
360 days
  Stability of Vitamin Es in Powder Concentrate: 2.12 mg/g powder
390 days
  Stability of Vitamin Es in Powder Concentrate: 2.21 mg/g powder
420 days
  Stability of Vitamin Es in Powder Concentrate: 2.21 mg/g powder
450 days
  Stability of Vitamin Es in Powder Concentrate: 2.07 mg/g powder
480 days
  Stability of Vitamin Es in Powder Concentrate: 2.10 mg/g powder
510 days
  Stability of Vitamin Es in Powder Concentrate: 2.15 mg/g powder
540 days
  Stability of Vitamin Es in Powder Concentrate: 2.21 mg/g powder
570 days
  Stability of Vitamin Es in Powder Concentrate: 2.13 mg/g powder

## CCCCCc1cc(O)c2c(c1)OC(C)(C)c1ccc(C)cc1-2 [CBN, cannabinol]
0 days
  Stability of Plant-Derived Cannabinoid Compounds in Powder Concentrate: 0.480 mg/g powder
1 days
  Stability of Plant-Derived Cannabinoid Compounds in Powder Concentrate: 0.471 mg/g powder
2 days
  Stability of Plant-Derived Cannabinoid Compounds in Powder Concentrate: 0.488 mg/g powder
3 days
  Stability of Plant-Derived Cannabinoid Compounds in Powder Concentrate: 0.474 mg/g powder
5 days
  Stability of Plant-Derived Cannabinoid Compounds in Powder Concentrate: 0.491 mg/g powder
8 days
  Stability of Plant-Derived Cannabinoid Compounds in Powder Concentrate: 0.469 mg/g powder
9 days
  Stability of Plant-Derived Cannabinoid Compounds in Powder Concentrate: 0.466 mg/g powder
10 days
  Stability of Plant-Derived Cannabinoid Compounds in Powder Concentrate: 0.499 mg/g powder
11 days
  Stability of Plant-Derived Cannabinoid Compounds in Powder Concentrate: 0.494 mg/g powder
12 days
  Stability of Plant-Derived Cannabinoid Compounds in Powder Concentrate: 0.496 mg/g powder
15 days
  Stability of Plant-Derived Cannabinoid Compounds in Powder Concentrate: 0.472 mg/g powder
16 days
  Stability of Plant-Derived Cannabinoid Compounds in Powder Concentrate: 0.483 mg/g powder
17 days
  Stability of Plant-Derived Cannabinoid Compounds in Powder Concentrate: 0.465 mg/g powder
18 days
  Stability of Plant-Derived Cannabinoid Compounds in Powder Concentrate: 0.470 mg/g powder
19 days
  Stability of Plant-Derived Cannabinoid Compounds in Powder Concentrate: 0.490 mg/g powder
22 days
  Stability of Plant-Derived Cannabinoid Compounds in Powder Concentrate: 0.486 mg/g powder
23 days
  Stability of Plant-Derived Cannabinoid Compounds in Powder Concentrate: 0.469 mg/g powder
24 days
  Stability of Plant-Derived Cannabinoid Compounds in Powder Concentrate: 0.465 mg/g powder
25 days
  Stability of Plant-Derived Cannabinoid Compounds in Powder Concentrate: 0.486 mg/g powder
26 days
  Stability of Plant-Derived Cannabinoid Compounds in Powder Concentrate: 0.486 mg/g powder
29 days
  Stability of Plant-Derived Cannabinoid Compounds in Powder Concentrate: 0.484 mg/g powder
30 days
  Stability of Plant-Derived Cannabinoid Compounds in Powder Concentrate: 0.476 mg/g powder
60 days
  Stability of Plant-Derived Cannabinoid Compounds in Powder Concentrate: 0.489 mg/g powder
90 days
  Stability of Plant-Derived Cannabinoid Compounds in Powder Concentrate: 0.483 mg/g powder
120 days
  Stability of Plant-Derived Cannabinoid Compounds in Powder Concentrate: 0.498 mg/g powder
150 days
  Stability of Plant-Derived Cannabinoid Compounds in Powder Concentrate: 0.500 mg/g powder
180 days
  Stability of Plant-Derived Cannabinoid Compounds in Powder Concentrate: 0.464 mg/g powder
210 days
  Stability of Plant-Derived Cannabinoid Compounds in Powder Concentrate: 0.501 mg/g powder
240 days
  Stability of Plant-Derived Cannabinoid Compounds in Powder Concentrate: 0.467 mg/g powder
270 days
  Stability of Plant-Derived Cannabinoid Compounds in Powder Concentrate: 0.464 mg/g powder
300 days
  Stability of Plant-Derived Cannabinoid Compounds in Powder Concentrate: 0.469 mg/g powder
330 days
  Stability of Plant-Derived Cannabinoid Compounds in Powder Concentrate: 0.502 mg/g powder
360 days
  Stability of Plant-Derived Cannabinoid Compounds in Powder Concentrate: 0.499 mg/g powder
390 days
  Stability of Plant-Derived Cannabinoid Compounds in Powder Concentrate: 0.479 mg/g powder
420 days
  Stability of Plant-Derived Cannabinoid Compounds in Powder Concentrate: 0.481 mg/g powder
450 days
  Stability of Plant-Derived Cannabinoid Compounds in Powder Concentrate: 0.480 mg/g powder
480 days
  Stability of Plant-Derived Cannabinoid Compounds in Powder Concentrate: 0.485 mg/g powder
510 days
  Stability of Plant-Derived Cannabinoid Compounds in Powder Concentrate: 0.499 mg/g powder
540 days
  Stability of Plant-Derived Cannabinoid Compounds in Powder Concentrate: 0.492 mg/g powder
570 days
  Stability of Plant-Derived Cannabinoid Compounds in Powder Concentrate: 0.471 mg/g powder
